# Data taken from ChEMBL document CHEMBL4699440, “Comprehensive review on the anti-bacterial activity of 1,2,3-triazole hybrids” (Eur J Med Chem, 2019).
# Legend:
# Assay type in all cases: functional
# Escherichia coli [1] = test: Antibacterial activity against Escherichia coli MTCC 443 incubated for 24 hrs by microdilution method
# Bacillus subtilis [2] = test: Antibacterial activity against Bacillus subtilis MTCC 441 incubated for 24 hrs by microdilution method
# Pseudomonas aeruginosa [3] = test: Antibacterial activity against Pseudomonas aeruginosa MTCC 741 incubated for 24 hrs by microdilution method
# [4] = test system: Staphylococcus epidermidis; test: Antibacterial activity against Staphylococcus epidermidis incubated for 24 hrs by microdilution method
# Klebsiella pneumoniae = test: Antibacterial activity against Klebsiella pneumoniae MTCC 618 incubated for 24 hrs by microdilution method
# Staphylococcus aureus [5] = test: Antibacterial activity against Staphylococcus aureus MTCC 96 incubated for 24 hrs by microdilution method
# Staphylococcus aureus [6] = test: Antibacterial activity against Staphylococcus aureus MTCC 7443 incubated for 24 hrs by two-fold serial dilution method
# Bacillus subtilis [7] = test: Potency index, ratio of ciprofloxacin MIC to test compound MIC for antimicrobial activity against Bacillus subtilis MTCC 441 incubated for 24 hrs by two-fold serial dilution method
# Escherichia coli [8] = test: Potency index, ratio of ciprofloxacin MIC to test compound MIC for antimicrobial activity against Escherichia coli MTCC 1652 incubated for […] by two-fold serial dilution method
# Pseudomonas aeruginosa [9] = test: Potency index, ratio of ciprofloxacin MIC to test compound MIC for antimicrobial activity against Pseudomonas aeruginosa MTCC 424 incubated for 24 hrs by two-fold serial dilution method
# Aspergillus brasiliensis = test: Antifungal activity against Aspergillus brasiliensis MTCC 1344 incubated for 7 days by microdilution method; conditions: MTCC 1344, 168 h, time 7 day
# Staphylococcus aureus [10] = test: Potency index, ratio of ciprofloxacin MIC to test compound MIC for antimicrobial activity against Staphylococcus aureus MTCC 7443 incubated for 24 hrs by two-fold serial dilution method
# Pseudomonas aeruginosa [11] = test: Antibacterial activity against Pseudomonas aeruginosa MTCC 424 incubated for 24 hrs by two-fold serial dilution method
# Candida albicans = test: Antifungal activity against Candida albicans MTCC 227 incubated for 2 days by microdilution method; conditions: MTCC 227, 48 h, time 2 day
# Bacillus subtilis [12] = test: Antibacterial activity against Bacillus subtilis MTCC 441 incubated for 24 hrs by two-fold serial dilution method
Compound,MIC (Escherichia coli [1]) [mg/L],MIC (Bacillus subtilis [2]) [mg/L],MIC (Pseudomonas aeruginosa [3]) [mg/L],MIC [4] [mg/L],MIC (Klebsiella pneumoniae) [mg/L],MIC (Staphylococcus aureus [5]) [mg/L],MIC (Staphylococcus aureus [6]) [µM],Ratio (Bacillus subtilis [7]),Ratio (Escherichia coli [8]),Ratio (Pseudomonas aeruginosa [9]),MIC (Aspergillus brasiliensis) [µM],Ratio (Staphylococcus aureus [10]),MIC (Pseudomonas aeruginosa [11]) [µM],MIC (Candida albicans) [µM],MIC (Bacillus subtilis [12]) [µM]
COc1ccc(-n2cc(Cn3cc(C(=O)N4CCCCC4)c(=O)c4cc(F)c(N5CCCCC5)cc43)nn2)cc1,18.8,18.8,18.8,18.8,18.8,18.8,,,,,,,,,
O=C(Cn1cc(COc2ccc(OCc3cn(CC(=O)Nc4ccc([N+](=O)[O-])cc4)nn3)cc2)nn1)Nc1ccc([N+](=O)[O-])cc1,,,,,,,0.0199,2,2,2,0.0199,2,0.0199,0.0199,0.0199
